Reference: US10975056B2 (GlaxoSmithKline Intellectual Property Development Limited, priority 2016, dated 2021)
Values joined by “and” are separate entries in the source; they are usually repeats but may differ in a detail not shown here. Equal entries are not always repeated. Where two headings read alike, the source gives them in different places.

Legend:
[1] = test system: erythroid progenitor cells (EPCs); test: Fetal hemoglobin (HbF) ELISA in day 7 erythroid progenitor cells; assay type: cell-based, human; details: Homo sapiens, Erythroid progenitor cell, HbF ELISA, day 7 EPCs, 5 days; read-out: EPC ELISA (pEC50 category) (converted);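 further: for fetal hemoglobin induction normalized to vehicle-treated cells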
In short: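 HbF induction was read by anti-HbF sandwich ELISA (HRP/TMB, OD450) on lysates and normalized to vehicle-treated cells. Cells were day 7 erythroid progenitors derived from human bone marrow CD34+ cells, seeded at 1,000/well with 3 U/mL rhEPO. Compound was given for 5 days at 37 °C at final concentrations […].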

DNMT1 = DNMT1 (Homo sapiens, UniProt P26358); test: DNMT1 biochemical activity, breaklight assay and/or SPA assay
DNMT1, sequence (P26358 whole entry, looked up): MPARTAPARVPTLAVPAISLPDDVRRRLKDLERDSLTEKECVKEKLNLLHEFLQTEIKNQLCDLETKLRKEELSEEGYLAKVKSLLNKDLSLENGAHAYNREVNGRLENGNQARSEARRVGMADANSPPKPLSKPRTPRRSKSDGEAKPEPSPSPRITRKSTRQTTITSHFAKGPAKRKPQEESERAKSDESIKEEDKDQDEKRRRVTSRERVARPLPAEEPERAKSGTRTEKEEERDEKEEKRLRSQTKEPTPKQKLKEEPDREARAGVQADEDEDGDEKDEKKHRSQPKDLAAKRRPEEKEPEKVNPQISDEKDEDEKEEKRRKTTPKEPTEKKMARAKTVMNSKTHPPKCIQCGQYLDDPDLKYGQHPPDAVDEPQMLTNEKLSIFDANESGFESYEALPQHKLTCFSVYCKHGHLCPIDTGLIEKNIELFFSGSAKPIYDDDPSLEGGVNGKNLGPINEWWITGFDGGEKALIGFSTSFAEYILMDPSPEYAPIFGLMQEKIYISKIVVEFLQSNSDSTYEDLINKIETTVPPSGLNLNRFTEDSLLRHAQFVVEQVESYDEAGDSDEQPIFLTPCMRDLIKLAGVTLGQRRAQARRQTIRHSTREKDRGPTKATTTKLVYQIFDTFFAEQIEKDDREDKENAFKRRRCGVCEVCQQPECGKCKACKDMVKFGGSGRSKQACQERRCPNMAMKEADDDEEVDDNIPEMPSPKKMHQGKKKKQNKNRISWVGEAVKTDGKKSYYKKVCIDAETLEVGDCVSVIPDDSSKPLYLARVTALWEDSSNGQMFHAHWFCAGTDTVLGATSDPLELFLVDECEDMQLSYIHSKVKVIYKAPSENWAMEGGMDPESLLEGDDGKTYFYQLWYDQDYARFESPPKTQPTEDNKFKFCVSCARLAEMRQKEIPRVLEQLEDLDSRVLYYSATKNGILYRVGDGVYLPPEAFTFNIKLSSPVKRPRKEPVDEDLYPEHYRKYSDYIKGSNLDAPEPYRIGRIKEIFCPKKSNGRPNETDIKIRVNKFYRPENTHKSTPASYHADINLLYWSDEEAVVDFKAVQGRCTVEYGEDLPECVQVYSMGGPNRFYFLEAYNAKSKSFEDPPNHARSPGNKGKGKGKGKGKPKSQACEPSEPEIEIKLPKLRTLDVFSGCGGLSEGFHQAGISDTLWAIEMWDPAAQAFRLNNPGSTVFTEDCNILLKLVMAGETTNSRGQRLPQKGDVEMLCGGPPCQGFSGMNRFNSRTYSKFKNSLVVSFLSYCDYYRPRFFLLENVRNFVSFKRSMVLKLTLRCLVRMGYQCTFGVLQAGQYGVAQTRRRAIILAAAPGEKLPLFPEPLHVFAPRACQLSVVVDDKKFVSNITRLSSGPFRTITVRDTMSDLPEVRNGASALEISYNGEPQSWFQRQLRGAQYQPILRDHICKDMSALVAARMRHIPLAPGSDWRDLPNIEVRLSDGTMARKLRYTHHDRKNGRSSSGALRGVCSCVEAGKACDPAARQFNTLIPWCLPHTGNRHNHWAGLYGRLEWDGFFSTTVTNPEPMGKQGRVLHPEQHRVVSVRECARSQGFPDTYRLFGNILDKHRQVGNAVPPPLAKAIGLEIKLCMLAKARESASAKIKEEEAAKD

[2] = binned activity in either the breaklight or the SPA assay, read-out: DNMT1 BioChemical (pIC50 category) (converted)
[3] = binned activity in either the breaklight or the SPA assay

SMILES | EC50 [1] | IC50 (DNMT1; [2]) | DNMT1 BioChemical (pIC50 category) (DNMT1; [3]) | IC50 (DNMT1; breaklight assay and/or SPA assay, repeated experimental runs, read-out: average pIC50 against DNMT1 (converted)) | IC50 (DNMT1; DNMT1 BioChemical (pIC50 category), binned activity in either the breaklight or the SPA assay)
CCc1c(C#N)c(SC(C(N)=O)c2c(F)cccc2F)nc(N2CC[C@H](O)C2)c1C#N (stereo partly drawn) [Example 428] | 0.316 to 1 µM | 0.316 to 1 µM |  |  | 
CCc1c(C)c(N2CCNCC2)nc(SC(C(N)=O)c2ccccc2)c1C#N (stereo not drawn) [Example 293, 2-((3-Cyano-4-ethyl-5-methyl-6-(piperazin-1-yl)pyridin-2-yl)thio)-2-phenylacetamide] | > 31.6 µM | 0.316 to 1 µM |  |  | 
CCc1c(C#N)c(SC(C(N)=O)c2cc(OC)ccn2)nc(N2CCCN(C)CC2)c1C#N (stereo not drawn) [Example 214, 2-((3,5-Dicyano-4-ethyl-6-(4-methyl-1,4-diazepan-1-yl)pyridin-2-yl)thio)-2-(4-methoxypyridin-2-yl)acetamide] | > 31.6 µM | 1 to 31.6 µM |  |  | 
CCc1c(C#N)c(SC(C(N)=O)c2ccccc2)nc(N2CCC(N(C)CCO)CC2)c1C#N (stereo not drawn) [Example 443, 2-((3,5-dicyano-4-ethyl-6-(4-((2-hydroxyethyl)(methyl)amino)piperidin-1-yl)pyridin-2-yl)thio)-2-phenylacetamide] | < 0.316 µM |  | D (Category D: ≥6.5) |  | 
CCc1c(C#N)c(SCc2ccc(N(C)S(C)(=O)=O)cc2)nc(N2CCOC(CN(CC)CC)C2)c1C#N (stereo not drawn) [Example 580, N-(4-(((3,5-dicyano-6-(2-((diethylamino)methyl)morpholino)-4-ethylpyridin-2-yl)thio)methyl)phenyl)-N-methylmethanesulfonamide] | < 0.316 µM |  | D (Category D: ≥6.5) |  | 
CCc1c(C#N)c(SC(C(N)=O)c2ccccc2)nc(N(C)CCN2CCC[C@H]2CO)c1C#N (stereo partly drawn) [Example 475, 2-((3,5-dicyano-4-ethyl-6-((2-((S)-2-(hydroxymethyl)pyrrolidin-1-yl)ethyl)(methyl)amino)pyridin-2-yl)thio)-2-phenylacetamide] | < 0.316 µM |  | D (Category D: ≥6.5) |  | 
CCc1c(C#N)c(SC(C(N)=O)c2ccccc2)nc(N2CCC[C@H](NC)C2)c1C#N (stereo partly drawn) [Example 607, 2-((3,5-dicyano-4-ethyl-6-((S)-3-(methylamino)piperidin-1-yl)pyridin-2-yl)thio)-2-phenylacetamide] | < 0.316 µM |  | D (Category D: ≥6.5) |  | 
CCc1c(C#N)c(SC(C(N)=O)c2ccccc2)nc(N2CCC(CO)(NCCO)CC2)c1C#N (stereo not drawn) [Example 661, 2-((3,5-dicyano-4-ethyl-6-(4-((2-hydroxyethyl)amino)-4-(hydroxymethyl)piperidin-1-yl)pyridin-2-yl)thio)-2-phenylacetamide] | 1 to 31.6 µM |  | D (Category D: ≥6.5) |  | 
CCc1c(C#N)c(SC(C(N)=O)c2ccccc2)nc(N2CCN(C(=O)c3ccc(Br)cc3)CC2)c1C#N (stereo not drawn) [Example 310, 2-((6-(4-(4-Bromobenzoyl)piperazin-1-yl)-3,5-dicyano-4-ethylpyridin-2-yl)thio)-2-phenylacetamide] | < 0.316 µM | 1 to 31.6 µM |  | ≥ 1 µM and 2 µM | 
CCc1c(C#N)c(SC(C(N)=O)c2ccccc2)nc(N2CCC(N3CCC(N)C3=O)CC2)c1C#N (stereo not drawn) [Example 270] | 1 to 31.6 µM |  | D (Category D: ≥6.5) |  | 
CCc1c(C#N)c(SC(C(N)=O)c2ccccc2)nc(N2CCC(CN3CCCC3)CC2)c1C#N (stereo not drawn) [Example 445, 2-((3,5-dicyano-4-ethyl-6-(4-(pyrrolidin-1-ylmethyl)piperidin-1-yl)pyridin-2-yl)thio)-2-phenylacetamide] | < 0.316 µM |  | D (Category D: ≥6.5) |  | 
CCc1c(C#N)c(SCc2ccc(N3CCCS3(=O)=O)cc2)nc(N2CCC(NCC(C)(C)C)CC2)c1C#N [Example 603, 2-((4-(1,1-dioxidoisothiazolidin-2-yl)benzyl)thio)-4-ethyl-6-(4-(neopentylamino)piperidin-1-yl)pyridine-3,5-dicarbonitrile] | > 31.6 µM |  | D (Category D: ≥6.5) |  | 
CCc1c(C#N)c(SC(C(N)=O)c2ccccc2)nc(N(C)CC(=O)N2CCO[C@H](CO)C2)c1C#N (stereo partly drawn) [Example 646, 2-((3,5-dicyano-4-ethyl-6-((2-((S)-2-(hydroxymethyl)morpholino)-2-oxoethyl)(methyl)amino)pyridin-2-yl)thio)-2-phenylacetamide] | < 0.316 µM |  | D (Category D: ≥6.5) |  | 
CCc1c(C#N)c(SC(C(N)=O)c2ccccc2)nc(N2CCc3ccncc3C2)c1C#N (stereo not drawn) [Example 178, 2-((3,5-Dicyano-6-(3,4-dihydro-2,7-naphthyridin-2 (1H)-yl)-4-ethylpyridin-2-yl)thio)-2-phenylacetamide] | 1 to 31.6 µM |  | D (Category D: ≥6.5) |  | 
CN(CC(=O)NC(CO)CO)c1nc(SC(C(N)=O)c2ccccc2)c(C#N)c(C2CC2)c1C#N (stereo not drawn) [Example 639, 2-((6-((2-amino-2-oxo-1-phenylethyl)thio)-3,5-dicyano-4-cyclopropylpyridin-2-yl)(methyl)amino)-N-(1,3-dihydroxypropan-2-yl)acetamide] | 1 to 31.6 µM |  | D (Category D: ≥6.5) |  | 
CCc1c(C#N)c(SC(C(N)=O)c2ccc(OC)cn2)nc(N2CCCN(C)CC2)c1C#N (stereo not drawn) [Example 221, 2-((3,5-Dicyano-4-ethyl-6-(4-methyl-1,4-diazepan-1-yl)pyridin-2-yl)thio)-2-(5-methoxypyridin-2-yl)acetamide] | < 0.316 µM | 0.316 to 1 µM |  |  | 
CCc1c(C#N)c(S[C@@H](C(N)=O)c2ccccc2)nc(N2CCC(N(C)C)CC2)c1C#N [Example 406, (R)-2-((3,5-Dicyano-6-(4-(dimethylamino)piperidin-1-yl)-4-ethylpyridin-2-yl)thio)-2-phenylacetamide] | < 0.316 µM |  | D (Category D: ≥6.5) |  | 
CCc1c(C#N)c(SC(C(N)=O)c2ccccc2)nc(N(C)C2CC3CCC(C2)N3)c1C#N (stereo not drawn) [Example 62, 2-((6-(8-azabicyclo[3.2.1]octan-3-yl(methyl)amino)-3,5-dicyano-4-ethylpyridin-2-yl)thio)-2-phenylacetamide] | 0.316 to 1 µM |  |  |  | 0.316 to 1 µM

Now from value to compound, other results behind:

EC50 [1] | IC50 (DNMT1; [2]) | DNMT1 BioChemical (pIC50 category) (DNMT1; [3]) | IC50 (DNMT1; breaklight assay and/or SPA assay, repeated experimental runs, read-out: average pIC50 against DNMT1 (converted)) | SMILES | IC50 (DNMT1; DNMT1 BioChemical (pIC50 category), binned activity in either the breaklight or the SPA assay)
1 to 31.6 µM |  | D (Category D: ≥6.5) |  | CCc1c(C#N)c(SC(C(N)=O)c2ccccc2)nc(N2CC(CO)C2)c1C#N (stereo not drawn) [Example 262, 2-((3,5-Dicyano-4-ethyl-6-(3-(hydroxymethyl)azetidin-1-yl)pyridin-2-yl)thio)-2-phenylacetamide] | 
1 to 31.6 µM | 0.316 to 1 µM |  |  | CCc1c(C#N)c(SC(C(N)=O)c2ccccc2)nc(N(C)C2CCN(C)C2)c1C#N (stereo not drawn) [Example 699, 2-((3,5-dicyano-4-ethyl-6-(methyl(1-methylpyrrolidin-3-yl)amino)pyridin-2-yl)thio)-2-phenylacetamide] | 
> 31.6 µM | 1 to 31.6 µM |  |  | CCc1c(C#N)c(S[C@@H](C(N)=O)c2ccc(F)cc2)nc(N2CC[C@H](OP(=O)(O)O)C2)c1C#N [Example 426, (S)-1-(6-(((R)-2-amino-1-(4-fluorophenyl)-2-oxoethyl)thio)-3,5-dicyano-4-ethylpyridin-2-yl)pyrrolidin-3-yl dihydrogen phosphate] | 
1 to 31.6 µM | 0.316 to 1 µM |  |  | CCc1c(C#N)c(SC(C(N)=O)c2ccccc2)nc(N2CCC3(COC3)C2)c1C#N (stereo not drawn) [Example 161, 2-((3,5-Dicyano-4-ethyl-6-(2-oxa-6-azaspiro[3.4]octan-6-yl)pyridin-2-yl)thio)-2-phenylacetamide] | 
1 to 31.6 µM | 0.316 to 1 µM |  |  | CCc1c(C#N)c(SC(C(N)=O)c2ccccc2)nc(N2CC3NCCOC3C2)c1C#N (stereo not drawn) [Example 204, 2-((3,5-Dicyano-4-ethyl-6-(hexahydropyrrolo[3,4-b][1,4]oxazin-6(2H)-yl)pyridin-2-yl)thio)-2-phenylacetamide] | 
1 to 31.6 µM |  | D (Category D: ≥6.5) |  | CCc1c(C#N)c(SC(C(N)=O)c2cccc(OCCN(C)C)c2)nc(N(C)C)c1C#N (stereo not drawn) [Example 407, 2-(3,5-dicyano-6-(dimethylamino)-4-ethylpyridin-2-ylthio)-2-(3-(2-(dimethylamino)ethoxy)phenyl)acetamide] | 
1 to 31.6 µM | 0.316 to 1 µM |  |  | CCc1c(C#N)c(SC(C(N)=O)c2ccccc2)nc(N2CCC3(CC2)CNC(=O)O3)c1C#N (stereo not drawn) [Example 256, 2-((3,5-Dicyano-4-ethyl6-(2-oxo-1-oxa-3,8-diazaspiro[4.5]decan-8-yl)pyridin-2-yl)thio)-2-phenylacetamide] | 
1 to 31.6 µM | 0.316 to 1 µM |  |  | CNc1c(C#N)c(SCc2ccc(CNC(C)=O)cc2)nc(N2CCCN(C)CC2)c1C#N [Example 91, N-(4-(((3,5-Dicyano-6-(4-methyl-1,4-diazepan-1-yl)-4-(methylamino)pyridin-2-yl)thio)methyl)benzyl)acetamide] | 
> 31.6 µM |  | D (Category D: ≥6.5) |  | CCc1c(C#N)c(SCc2ccc(N3CCCS3(=O)=O)cc2)nc(N2CCC(N)CC2)c1C#N [Example 600, 2-(4-aminopiperidin-1-yl)-6-((4-(1,1-dioxidoisothiazolidin-2-yl)benzyl)thio)-4-ethylpyridine-3,5-dicarbonitrile] | 
< 0.316 µM |  | D (Category D: ≥6.5) |  | CCc1c(C#N)c(SC(C(N)=O)c2ccccc2)nc(N2CCC[C@@H](CNC(=O)C(C)(C)N)C2)c1C#N (stereo partly drawn) [Example 588, 2-amino-N-(((3S)-1-(6-((2-amino-2-oxo-1-phenylethyl)thio)-3,5-dicyano-4-ethylpyridin-2-yl)piperidin-3-yl)methyl)-2-methylpropanamide] | 
